The values below come from patent US8299267B2, “(3-hydroxy-4-amino-butan-2-yl) -3- (2-thiazol-2-yl-pyrrolidine-1-carbonyl) benzamide derivatives and related compounds as beta-secretase inhibitors for treating” (CoMentis, Inc., priority 2007, dated 2012).

Sequence of memapsin 2 (P56817 46-501): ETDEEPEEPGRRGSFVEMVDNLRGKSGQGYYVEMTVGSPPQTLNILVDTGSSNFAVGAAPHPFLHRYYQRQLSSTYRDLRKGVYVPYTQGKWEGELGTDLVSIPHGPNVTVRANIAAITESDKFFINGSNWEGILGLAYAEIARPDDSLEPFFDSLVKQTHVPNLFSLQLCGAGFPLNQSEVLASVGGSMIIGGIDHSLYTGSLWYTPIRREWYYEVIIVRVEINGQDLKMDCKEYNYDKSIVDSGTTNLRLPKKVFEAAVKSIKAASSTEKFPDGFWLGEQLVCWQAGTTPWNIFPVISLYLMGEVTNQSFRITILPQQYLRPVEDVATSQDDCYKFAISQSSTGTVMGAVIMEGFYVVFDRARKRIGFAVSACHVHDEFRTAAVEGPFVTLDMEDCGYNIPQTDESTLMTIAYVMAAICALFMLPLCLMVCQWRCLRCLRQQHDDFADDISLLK

The target in the test is memapsin 2 (Homo sapiens, UniProt P56817). Put plainly: Inhibition of memapsin 2 beta-secretase activity toward fluorogenic substrate FS-2. The test is classed as biochemical. Conditions: memapsin 2, pH 4, 37° C., 20 minutes pre-incubation, substrate FS-2; read-out: M2Ki. On the procedure:
Potency of compounds were determined by measurement of their inhibition of memapsin 2 activity toward a fluorescent substrate. Kinetic inhibition experiments were performed using the procedure as described in Ermolieff, et al. (Biochemistry 39:12450-12456 (2000), the teachings of which are incorporated hereby in their entirety). Briefly, assays were performed at pH 4, 37° C., by pre-incubation of memapsin 2 enzyme with compound for 20 minutes. Activity measurements were initiated by addition of a fluorogenic substrate FS-2 (Bachem Americas, Torrance, Calif.) MCA-SEVNLDAEFK-DNP (SEQ ID NO.: 2). The substrate was derived from 10 amino acids of the human amyloid precursor protein (APP), with the Swedish variant amino acids at the beta-secretase cleavage site. The terminal amino acid was modified from arginine to lysine to facilitate derivatization with a functional group for detection by autofluorescence. The amino acid sequence of the “core” peptide of the substrate is SEVNLDAEFK (SEQ ID NO.: 3). The amino terminus was derivatized with (7-methoxycoumarin-4-yl)acetyl (MCA), and the epsilon amine of the lysine side chain of the terminal residue (K in sequence SEVNLDAEFK (SEQ ID NO.: 4)) was derivatized with 2,4-dinitrophenyl (DNP).
Regarding `Cc1cc(C(=O)N[C@@H](Cc2ccccc2)[C@H](O)CNCc2cncc(C(C)(F)F)c2)cc(C(=O)N2CCC[C@@H]2c2nc(C)cs2)c1` [Compound 116, N-((2S,3R)-4-((5-(1,1-difluoroethyl)pyridin-3-yl)methylamino)-3-hydroxy-1-phenylbutan-2-yl)-3-methyl-5-((R)-2-(4-methylthiazol-2-yl)pyrrolidine-1-carbonyl)benzamide], the Ki is less than 100 nM.

Take `Cc1csc([C@H]2CCCN2C(=O)c2cc(C(=O)N[C@@H](Cc3ccccc3)[C@H](O)CNCc3cccc(C(F)(F)F)c3)nc(N(C)C)n2)n1` [Compound 100, 2-(dimethylamino)-N-((2S,3R)-3-hydroxy-1-phenyl-4-(3-(trifluoromethyl)benzylamino)butan-2-yl)-6-((R)-2-(4-methylthiazol-2-yl)pyrrolidine-1-carbonyl)pyrimidine-4-carboxamide]: the Ki was less than 100 nM.

For `Cc1csc([C@H]2CCCN2C(=O)c2cncc(C(=O)N[C@@H](Cc3ccccc3)[C@H](O)CNCc3cc(C#N)cc(C(C)C)c3)c2)n1` [Compound 61, N-((2S,3R)-4-(3-cyano-5-isopropylbenzylamino)-3-hydroxy-1-phenylbutan-2-yl)-5-((R)-2-(4-methylthiazol-2-yl)pyrrolidine-1-carbonyl)nicotinamide], the Ki was less than 100 nM.

`Cc1csc([C@H]2CCCN2C(=O)c2cc(C(=O)N[C@@H](Cc3ccccc3)[C@H](O)CNCc3cncc(C(C)C)c3)cc(C(F)F)c2)n1` [Compound 62, 3-(difluoromethyl)-N-((2S,3R)-3-hydroxy-4-((5-isopropylpyridin-3-yl)methylamino)-1-phenylbutan-2-yl)-5-((R)-2-(4-methylthiazol-2-yl)pyrrolidine-1-carbonyl)benzamide]: the Ki is less than 100 nM.

For the molecule `Cc1csc([C@H]2CCCN2C(=O)c2cc(C(=O)N[C@@H](Cc3ccccc3)[C@H](O)CNCc3cncc(C(C)(C)F)c3)cc(N(C)C)c2)n1` [Compound 36, 3-(dimethylamino)-N-((2S,3R)-4-((5-(2-fluoropropan-2-yl)pyridin-3-yl)methylamino)-3-hydroxy-1-phenylbutan-2-yl)-5-((R)-2-(4-methylthiazol-2-yl)pyrrolidine-1-carbonyl)benzamide], the Ki is less than 100 nM.

Take `Cc1coc([C@H]2CCCN2C(=O)c2cccc(C(=O)N[C@@H](Cc3ccccc3)[C@H](O)CNCc3cncc(C(C)(C)C)c3)c2)n1` [Compound 111, N-((2S,3R)-4-((5-tert-butylpyridin-3-yl)methylamino)-3-hydroxy-1-phenylbutan-2-yl)-3-((R)-2-(4-methyloxazol-2-yl)pyrrolidine-1-carbonyl)benzamide]: the Ki is less than 100 nM.

For the molecule `COc1cccc([C@H](C)NC[C@@H](O)[C@H](Cc2ccccc2)NC(=O)c2cc(C(=O)N3CCC[C@@H]3c3nc(C)cs3)cc(N(C)C)c2)c1` [Compound 53, 3-(dimethylamino)-N-((2S,3R)-3-hydroxy-4-((S)-1-(3-methoxyphenyl)ethylamino)-1-phenylbutan-2-yl)-5-((R)-2-(4-methylthiazol-2-yl)pyrrolidine-1-carbonyl)benzamide], the Ki is 101 to 200 nM.

Consider `Cc1cc(C(=O)N[C@@H](Cc2ccccc2)[C@H](O)CNCc2cccc(OC(F)(F)F)c2)cc(C(=O)N2CCC[C@@H]2c2nc(C)co2)c1` [Compound 115, N-((2S,3R)-3-hydroxy-1-phenyl-4-(3-(trifluoromethoxy)benzylamino)butan-2-yl)-3-methyl-5-((R)-2-(4-methyloxazol-2-yl)pyrrolidine-1-carbonyl)benzamide], for which the Ki is less than 100 nM.

In the case of `Cc1coc([C@H]2CCCN2C(=O)c2cncc(C(=O)N[C@@H](Cc3ccccc3)[C@H](O)CNCc3cccc(C(F)(F)F)c3)c2)n1` [Compound 72, N-((2S,3R)-3-hydroxy-1-phenyl-4-(3-(trifluoromethyl)benzylamino)butan-2-yl)-5-((R)-2-(4-methyloxazol-2-yl)pyrrolidine-1-carbonyl)nicotinamide], the Ki is less than 100 nM.
